Measurements from patent US12281323B2, “Treatment for restoring ureagenesis in carbamoyl phosphate synthetase 1 deficiency” (The Regents of the University of California, priority 2019, dated 2025).

Tested on: conditional CPS1 knock out mouse model
Assay: sAAV efficacy in vivo in conditional CPS1 knock out mouse model (floxed Cps1 removed by AAV-Cre)
Details: sAAV-treated mice additionally treated with n-carglumic acid
Text: To illustrate the ability of sAAVs to treat CPS1 deficiency, sAAVs encoding human codon optimized CPS1 (hcoCPS1) driven by the constitutive CAG promoter were generated and tested in a conditional CPS1 knock out mouse model (see, e.g. Khoja et al., Molecular Genetics and Metabolism. 2018 Aug. 1; 124(4):243-253). […] Currently, there is no effective therapy for human patients with CPS1 disorders. Our data from this gene therapy model in mice having knocked out endogenous CPS1 expression provides evidence that this treatment can address this unmet need for these patients.
In illustrative embodiments of the invention, to test sAAV efficacy in vivo, a conditional CPS1 knock out mouse model was used. These mice contain biallelic floxed Cps1 which is removed by treatment with an AAV expressing Cre recombinase (AAV-Cre). […] Treatment with the small molecule n-carglumic acid, an analog of NAG, the allosteric activator of CPS1, further extended lifespan (all mice >120 days; p<0.01) and maintained near normal plasma ammonia (baseline: 138.87 μM±86.5; post-treatment: 217.8 μM±69.9; p=0.15).

With `NC(=O)N[C@@H](CCC(=O)O)C(=O)O` [n-carglumic acid] the lifespan (all mice, p<0.01) was > 120 days and the plasma ammonia post-treatment (±69.9, baseline 138.87 μM±86.5, p=0.15) was 217.8 µM.
